Tests used:
[1] = target: T1, Protoporphyrinogen IX oxidase (Zea mays, UniProt Q9FYV8); experiment: Inhibition of protoporphyrinogen IX oxidase in Zea mays (maize) seed after 5 min by Dixon plot analysis; conditions: read-out: pI50 (converted)
T1 sequence (Q9FYV8 whole entry): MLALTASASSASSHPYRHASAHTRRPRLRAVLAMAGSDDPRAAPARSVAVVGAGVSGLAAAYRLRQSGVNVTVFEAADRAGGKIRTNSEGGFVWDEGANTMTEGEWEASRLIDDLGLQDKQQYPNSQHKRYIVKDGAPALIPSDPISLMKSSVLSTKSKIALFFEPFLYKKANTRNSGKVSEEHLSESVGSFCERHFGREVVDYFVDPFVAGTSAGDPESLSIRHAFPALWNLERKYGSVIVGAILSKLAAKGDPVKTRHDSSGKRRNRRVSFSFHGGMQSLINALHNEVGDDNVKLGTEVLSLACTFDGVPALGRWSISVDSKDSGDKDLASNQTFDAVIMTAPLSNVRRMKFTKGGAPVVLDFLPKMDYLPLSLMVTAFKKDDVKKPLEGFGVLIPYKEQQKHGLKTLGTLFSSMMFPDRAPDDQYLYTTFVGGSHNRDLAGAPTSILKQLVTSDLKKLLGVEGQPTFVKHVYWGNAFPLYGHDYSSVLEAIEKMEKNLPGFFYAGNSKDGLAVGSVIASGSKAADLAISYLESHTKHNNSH

Scenedesmus acutus = experiment: Inhibition of light-induced ethane formation in Scenedesmus acutus after 20 hr; format: functional, organism-based; conditions: read-out: pI50 (converted)

Row | IC50 [1] [µM] | IC50 (Scenedesmus acutus) [µM] | Compound
1 | 0.000398 | 0.501 | C#CCOc1cc(N2C(=O)C3=C(CCCC3)C2=O)ccc1Cl
2 | 0.002 | 0.126 | C#CCOc1cc(N2C(=O)C3=C(CCCC3)C2=O)c(F)cc1Cl
3 | 0.00398 | 0.251 | O=C1C2=C(CCCC2)C(=O)N1c1ccc(Cl)cc1F
4 | 0.00126 | 0.0794 | CC(C)OC(=O)c1cc(N2C(=O)C3=C(CCCC3)C2=O)c(F)cc1Cl
5 | 0.001 | 0.2 | CC(C)OC(=O)c1cc(N2C(=O)C3=C(CCCC3)C2=O)ccc1Cl
6 | 0.001 | – | C#CCOc1cc(-n2nc3c(c2Cl)CCCC3)c(F)cc1Cl
7 | 1.58 | 10 | O=C1C2=C(CCCC2)C(=O)N1c1ccccc1
8 | 2.51 | 10 | O=C1C2=C(CCCC2)C(=O)N1c1ccccc1F
9 | 0.001 | 0.631 | C#CCN1C(=O)COc2ccc(N3C(=O)C4=C(CCCC4)C3=O)cc21

Row | Compound | IC50 [1] [µM] | IC50 (Scenedesmus acutus) [µM]
10 | O=C1C2=C(CCCC2)C(=O)N1c1ccc(Cl)cc1 [CHLOROPHTHALIUM] | 0.0251 | 1
11 | CCCCCOC(=O)COc1cc(N2C(=O)C3=C(CCCC3)C2=O)c(F)cc1Cl [FLUMICIORAC-PENTYL] | 0.0011 | –
12 | C#CCN1C(=O)COc2cc(F)c(N3C(=O)C4=C(CCCC4)C3=O)cc21 [FLUMIOXAZIN] | – | 0.316
13 | C#CC(C)Oc1cc(N2C(=O)C3=C(CCCC3)C2=O)c(F)cc1Cl (configuration not stated) [FLUMIPROPYN] | 0.001 | 0.105
14 | COC(=O)CSc1cc(/N=c2\sc(=O)n3n2CCCC3)c(F)cc1Cl [FLUTHIACETMETHYL] | 0.0479 | 0.955
15 | CC(C)=C1OC(=O)N(c2cc(OC3CCCC3)c(Cl)cc2F)C1=O [PENTOXAZONE] | 0.00525 | 0.631

From ChEMBL document CHEMBL3046049, “Protoporphyrinogen-IX Oxidase Inhibition by N-(2, 4, 5-Trisubstituted phenyl)-3, 4, 5, 6-tetrahydrophthalimides” (J Pestic Sci, 1997)
